Measured values: PubChem BioAssay (NCI)
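Exposure lasted 48 hours, with cells grown in 96-well plates and compounds tested at five concentrations. TGI denotes the concentration required for complete inhibition of growth.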

Legend:
Experiment in all cases: NCI anticancer screen, dose series, 48 h
A549 NSCLC = tested on: A549 NSCLC
ACHN renal = tested on: ACHN renal
DLD-1 colon = tested on: DLD-1 colon
DMS 273 small cell lung = tested on: DMS 273 small cell lung
HOP-18 NSCLC = tested on: HOP-18 NSCLC
KM20L2 colon = tested on: KM20L2 colon
LXFL 529 NSCLC = tested on: LXFL 529 NSCLC
M19-MEL melanoma = tested on: M19-MEL melanoma
RXF-631 renal = tested on: RXF-631 renal
SNB-78 CNS = tested on: SNB-78 CNS
DMS 114 small cell lung = tested on: DMS 114 small cell lung
XF 498 CNS = tested on: XF 498 CNS

Row | Compound | TGI (A549 NSCLC) | TGI (ACHN renal) | TGI (DLD-1 colon) | TGI (DMS 273 small cell lung) | TGI (HOP-18 NSCLC) | TGI (KM20L2 colon) | TGI (LXFL 529 NSCLC) | TGI (M19-MEL melanoma) | TGI (RXF-631 renal) | TGI (SNB-78 CNS) | TGI (DMS 114 small cell lung) | TGI (XF 498 CNS)
1 | O/N=C/c1cc2c(cc1Br)OCO2 | > 100 µM | > 100 µM | > 100 µM | > 100 µM | > 100 µM | > 100 µM | > 100 µM | > 100 µM | > 100 µM | > 100 µM | – | –
2 | C=CN1C(=O)OC[C@@H]1c1ccccc1 | > 100 µM | > 100 µM | > 100 µM | 50.7 µM | > 100 µM | > 100 µM | > 100 µM | > 100 µM | > 100 µM | > 100 µM | > 100 µM | > 100 µM
3 | CCn1c2ccccc2c2ccc3c(c21)C(=O)c1ccccc1C3=O | > 100 µM | > 100 µM | > 100 µM | > 100 µM | > 100 µM | > 100 µM | > 100 µM | 60.6 µM | – | > 100 µM | > 100 µM | > 100 µM
4 | COc1c(OC)c(N)c2cc(C)c(=O)c(C)cc2c1N | > 100 µM | > 100 µM | > 100 µM | > 100 µM | > 100 µM | > 100 µM | > 100 µM | > 100 µM | – | > 100 µM | > 100 µM | > 100 µM
5 | O=C(O)C12C3C4C1C1C2C3C1(Br)C41OCCO1 (stereo not given) | > 100 µM | > 100 µM | > 100 µM | > 100 µM | > 100 µM | > 100 µM | > 100 µM | > 100 µM | – | > 100 µM | > 100 µM | > 100 µM
